TR-FRET signal data for 70 compounds are collected here from patent US20240246941A1, “SUBSTITUTED 4-(3-AMINOPROP-1-YL)AMINOQUINOLINE ANALOGS AS MODULATORS OF MELANOMA-ASSOCIATED ANTIGEN 11 UBIQUITIN LIGASE” (ST. JUDE CHILDREN'S RESEARCH HOSPITAL, INC., priority 2020, published 2024).

Each structure is given as a SMILES string.

The first test deals with MAGE-A11:PCF11 (Homo sapiens (Human), UniProt P43364). The experiment in a line: TR-FRET single point screening at 15 μM. Also on record: unit not given here. In kind it is binding. Conditions: single point TR-FRET screening at 15 μM against MAGE-A11:PCF11. The gist of the method: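 Competition TR-FRET: compounds at final 15 μM mixed with 200 nM FAM-PCF11_4, 5 nM GST-MAGEA11 and 5 nM Tb-anti-GST in Tris pH 7.5/MgCl2/BSA/DTT buffer, room temperature, 90 min. Emission ratio 520/490 nm (340 nm excitation) expressed as % inhibition relative to positive and negative controls.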
Sequence of MAGE-A11:PCF11 (P43364 218-429): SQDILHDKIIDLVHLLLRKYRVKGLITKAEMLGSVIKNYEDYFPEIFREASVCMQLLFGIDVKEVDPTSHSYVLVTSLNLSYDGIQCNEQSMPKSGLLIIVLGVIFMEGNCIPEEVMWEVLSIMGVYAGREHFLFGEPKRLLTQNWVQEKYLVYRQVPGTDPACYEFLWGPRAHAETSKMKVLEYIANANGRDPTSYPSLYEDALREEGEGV
Background: In TR-FRET formats the signal depends on donor and acceptor labels being close together.
`Clc1ccc2c(NCCCCN(Cc3ccccc3)Cc3ccccc3)ccnc2c1` [SJ000522718] yielded a TR-FRET signal of 17.35.

Consider `Clc1ccc2c(NCCCCN(Cc3ccccc3)Cc3ccc4c(c3)OCO4)ccnc2c1` [SJ000522723], for which the TR-FRET signal was found to be 16.51.

For the compound `COc1ccc(CN(CCCCNc2ccnc3cc(Cl)ccc23)Cc2ccccc2)cc1` [SJ000522724], the TR-FRET signal is 6.683. On the same count and under the same terms, as for `Fc1ccc(CN(CCCCNc2ccnc3cc(Cl)ccc23)Cc2ccccc2)cc1` [SJ000522725], the figure is 30.2. Regarding `COc1ccccc1CN(CCCCNc1ccnc2cc(Cl)ccc12)Cc1ccccc1` [SJ000522726], the TR-FRET signal is 19.4. Still for that read-out and setting: as for `CN(C)c1ccc(CN(CCCCNc2ccnc3cc(Cl)ccc23)Cc2ccccc2)cc1` [SJ000522727], the figure is 21.52; as for `COc1ccc(CN(CCCCNc2ccnc3cc(Cl)ccc23)Cc2ccccc2)cc1OC` [SJ000522728], 0.05797; as for `Clc1ccc2c(NCCCCN(CCCc3ccccc3)Cc3ccccc3)ccnc2c1` [SJ000522729], 27.82. On the same count and under the same terms, the same measure for `CCCN(CCCNc1c2ccc(Cl)cc2nc2ccc(OC)cc12)CCC(C)c1ccccc1` (stereo not shown) [SJ000522731]: −121. `CCCN(CCCNc1c2ccc(Cl)cc2nc2ccc(OC)cc12)Cc1c(F)cccc1OC` [SJ000522733] showed a TR-FRET signal of −187.1.

In turn, `CCCN(CCCNc1c2ccc(Cl)cc2nc2ccc(OC)cc12)Cc1ccc([N+](=O)[O-])s1` [SJ000522735] yielded a TR-FRET signal of −154.4. The same measure, in the same setting: as for `CCCN(CCCNc1c2ccc(Cl)cc2nc2ccc(OC)cc12)Cc1cn(C(C)=O)c2ccccc12` [SJ000522736], the figure is −192.4; as for `CCCN(CCCNc1c2ccc(Cl)cc2nc2ccc(OC)cc12)Cc1cccc(C#N)c1` [SJ000522739], −94.54. Still for that read-out and setting: as for `COC(=O)c1ccc(CNCCCNc2c3ccc(Cl)cc3nc3ccc(OC)cc23)cc1` [SJ000522957], the figure is −133; as for `COc1ccc2nc3cc(Cl)ccc3c(NCCCNCc3ccc(Cl)cc3Cl)c2c1` [SJ000522958], −97.83.

`CCCN(CCCNc1c2ccc(Cl)cc2nc2ccc(OC)cc12)Cc1ccc(OC)c(F)c1` [SJ000522963] showed a TR-FRET signal of −177.5. On the same count and under the same terms, the same measure for `CCCN(CCCNc1c2ccc(Cl)cc2nc2ccc(OC)cc12)Cc1cn(C)c2ccccc12` [SJ000522964]: −162.2; for `CCCCN(CCC)CCCNc1c2ccc(Cl)cc2nc2ccc(OC)cc12` [SJ000522971]: −286.9; for `CCCN(CCCNc1c2ccc(Cl)cc2nc2ccc(OC)cc12)Cc1ccc(CC)cc1` [SJ000522972]: −105.1. Turning to `CCCN(CCCNc1c2ccc(Cl)cc2nc2ccc(OC)cc12)Cc1nccn1C` [SJ000522973], the TR-FRET signal was −159.9.

`CCCN(CCCNc1c2ccc(Cl)cc2nc2ccc(OC)cc12)Cc1scnc1C` [SJ000522976] had a TR-FRET signal of −127.

The same test, now with this note: single point TR-FRET screening of quinoline compounds against MAGE-A11:PCF11; 15 μM.
The compound `FC(F)(F)c1ccc2c(NCCCNCC3CCOC3)ccnc2c1` (stereo not shown) [SJ000521065] had a TR-FRET signal of 15.56.

`Cn1ccnc1CNCCCNc1ccnc2cc(C(F)(F)F)ccc12` [SJ000521068]: the TR-FRET signal turned out to be 10.19. For `Clc1ccc2c(NCCCN(Cc3ccccc3)Cc3ccc[nH]3)ccnc2c1` [SJ000522717], the TR-FRET signal turned out to be 20.46. Same read-out and setting: the same measure for `Clc1ccc2c(NCCCN(Cc3ccccc3)Cc3ccc4c(c3)OCO4)ccnc2c1` [SJ000522719]: 9.001; for `COc1ccc(CN(CCCNc2ccnc3cc(Cl)ccc23)Cc2ccccc2)cc1` [SJ000522720]: 11.78. On the same count and under the same terms, the same measure for `Fc1ccc(CN(CCCNc2ccnc3cc(Cl)ccc23)Cc2ccccc2)cc1` [SJ000522721]: 18.08; for `COc1ccccc1CN(CCCNc1ccnc2cc(Cl)ccc12)Cc1ccccc1` [SJ000522722]: 4.43. On the same count and under the same terms, the same measure for `CCCN(CCCNc1c2ccc(Cl)cc2nc2ccc(OC)cc12)CCCSC` [SJ000522730]: 0.7867; for `CCCN(CCCNc1c2ccc(Cl)cc2nc2ccc(OC)cc12)Cc1ccc2[nH]ccc2c1` [SJ000522732]: 39.47; for `CCCN(CCCNc1c2ccc(Cl)cc2nc2ccc(OC)cc12)Cc1c(F)c(F)c(F)c(F)c1F` [SJ000522734]: −2.258. In the case of `CCCN(CCCNc1c2ccc(Cl)cc2nc2ccc(OC)cc12)Cc1cc2ccccc2nc1Cl` [SJ000522737], the TR-FRET signal was −83.74. Same read-out and setting: the same measure for `CCCN(CCCNc1c2ccc(Cl)cc2nc2ccc(OC)cc12)Cc1ccc(Cl)c([N+](=O)[O-])c1` [SJ000522738]: −71.03; for `CCCN(CCCNc1c2ccc(Cl)cc2nc2ccc(OC)cc12)Cc1ccc(-c2ccccc2)cc1` [SJ000522740]: −74.01; for `CN(C)c1ccc(CN(CCCNc2ccnc3cc(Cl)ccc23)Cc2ccccc2)cc1` [SJ000522741]: 14.76. On the same count and under the same terms, the same measure for `COc1ccc(CN(CCCNc2ccnc3cc(Cl)ccc23)Cc2ccccc2)cc1OC` [SJ000522742]: −0.5383; for `CCCN(CCCNc1ccnc2cc(Cl)ccc12)Cc1ccccn1` [SJ000522743]: 1.313; for `CCCN(CCCNc1ccnc2cc(Cl)ccc12)Cc1ccsc1` [SJ000522744]: 7.824. In turn, `CCCN(CCCNc1ccnc2cc(Cl)ccc12)Cc1ccccc1C(F)(F)F` [SJ000522745] returned a TR-FRET signal of −38.03. On the same count and under the same terms, as for `CCCN(CCCNc1ccnc2cc(Cl)ccc12)Cc1ccc2[nH]ccc2c1` [SJ000522746], the figure is 96.84. Same read-out and setting: the same measure for `CCCN(CCCNc1ccnc2cc(Cl)ccc12)Cc1ccccc1N` [SJ000522747]: 15.43. On the same count and under the same terms, the same measure for `CCCN(CCCNc1ccnc2cc(Cl)ccc12)Cc1c(F)c(F)c(F)c(F)c1F` [SJ000522748]: 19.87; for `CCCN(CCCNc1ccnc2cc(Cl)ccc12)Cc1c(C)cc(C)cc1C` [SJ000522749]: 35.43; for `CCCN(CCCNc1ccnc2cc(Cl)ccc12)Cc1ccc([N+](=O)[O-])s1` [SJ000522750]: 9.134. The compound `CCCN(CCCNc1ccnc2cc(Cl)ccc12)CC1CCCCC1` [SJ000522751] showed a TR-FRET signal of 15.63.

For `CCCN(CCCNc1ccnc2cc(Cl)ccc12)CC(CC)CC` [SJ000522752], the TR-FRET signal came out at 14.17. Same read-out and setting: as for `CCCN(CCCNc1ccnc2cc(Cl)ccc12)Cc1ccc2c(c1)OCO2` [SJ000522753], the figure is 18.75. With `CCCCCN(CCC)CCCNc1ccnc2cc(Cl)ccc12` [SJ000522754], the TR-FRET signal came to 16.29. In turn, `CCCN(CCCNc1ccnc2cc(Cl)ccc12)Cc1c(C)n(C)n(-c2ccccc2)c1=O` [SJ000522755] yielded a TR-FRET signal of 13.64. Still for that read-out and setting: as for `CCCN(CCCNc1ccnc2cc(Cl)ccc12)Cc1ccc(OC)cc1` [SJ000522756], the figure is 19.14. On the same count and under the same terms, the same measure for `CCCN(CCCNc1ccnc2cc(Cl)ccc12)Cc1ccccc1F` [SJ000522757]: 21.99. Same read-out and setting: as for `CCCN(CCCNc1ccnc2cc(Cl)ccc12)Cc1cccc(F)c1` [SJ000522758], the figure is 27.42. Compound `CCCN(CCCNc1ccnc2cc(Cl)ccc12)Cc1ccc(F)cc1` [SJ000522759] registered a TR-FRET signal of 20.79.

With `CCCN(CCCNc1ccnc2cc(Cl)ccc12)Cc1cc2ccccc2nc1Cl` [SJ000522760], the TR-FRET signal came to 12.8.

`CCCN(CCCNc1ccnc2cc(Cl)ccc12)Cc1ccc(Cl)c([N+](=O)[O-])c1` [SJ000522761] registered a TR-FRET signal of 16.95. Same read-out and setting: the same measure for `CCCN(CCCNc1ccnc2cc(Cl)ccc12)Cc1c2ccccc2cc2ccccc12` [SJ000522762]: 15.49. As to `CCCN(CCCNc1ccnc2cc(Cl)ccc12)Cc1cccc(C#N)c1` [SJ000522763], the TR-FRET signal was found to be 12.91. With `COc1ccc2nc3cc(Cl)ccc3c(NCCCNCc3cccc(C)c3)c2c1` [SJ000522956], the TR-FRET signal was −7.089. As for `COc1ccc2nc3cc(Cl)ccc3c(NCCCNCc3ccc(-c4cccc(Cl)c4)o3)c2c1` [SJ000522959], the TR-FRET signal is −47.42. For the compound `COc1ccc2nc3cc(Cl)ccc3c(NCCCNCc3c(Cl)ccc(Cl)c3Cl)c2c1` [SJ000522960], the TR-FRET signal is given as −81.49. In turn, `CCCN(CCCNc1c2ccc(Cl)cc2nc2ccc(OC)cc12)Cc1ccccc1OC(F)(F)F` [SJ000522961] displayed a TR-FRET signal of 22.69. Still for that read-out and setting: the same measure for `CCCN(CCCNc1c2ccc(Cl)cc2nc2ccc(OC)cc12)Cc1cc2ccccc2s1` [SJ000522962]: −21.58.

As to `CCCN(CCCNc1c2ccc(Cl)cc2nc2ccc(OC)cc12)Cc1cc(OC)ccc1F` [SJ000522965], the TR-FRET signal was −81.24. In the case of `CCCN(CCCNc1c2ccc(Cl)cc2nc2ccc(OC)cc12)Cc1nc(C)cs1` [SJ000522966], the TR-FRET signal is listed as −82.15. `CCCN(CCCNc1c2ccc(Cl)cc2nc2ccc(OC)cc12)Cc1cccc(OC(F)(F)F)c1` [SJ000522967]: the TR-FRET signal is on record as 14.48. On the same count and under the same terms, the same measure for `CCCN(CCCNc1c2ccc(Cl)cc2nc2ccc(OC)cc12)Cc1c(F)cccc1C(F)(F)F` [SJ000522968]: 23.09. Same read-out and setting: as for `CCCN(CCCNc1c2ccc(Cl)cc2nc2ccc(OC)cc12)Cc1nc2ccccc2s1` [SJ000522969], the figure is −68.77; as for `CCCN(CCCNc1c2ccc(Cl)cc2nc2ccc(OC)cc12)Cc1csc2ccccc12` [SJ000522970], −51.69. Still for that read-out and setting: the same measure for `CCCN(CCCNc1c2ccc(Cl)cc2nc2ccc(OC)cc12)Cc1ccc(Cl)c(C(F)(F)F)c1` [SJ000522974]: 16.36; for `CCCN(CCCNc1c2ccc(Cl)cc2nc2ccc(OC)cc12)Cc1cncc(Br)c1` [SJ000522975]: −89.08.
